Reference: patent US20210353613A1, “TREATMENT OF NEUROLOGICAL DISEASE” (Aclipse One Inc., priority 2018, published 2021)
“Also recorded” adds a separate entry of the source.

Experiments:
Assay type in all cases: cell-based
misfolded SOD1 = experiment: Misfolded SOD1 immunocytochemistry (B8H10 antibody) in human iAstrocytes; settings: for SOD1 misfolding in human iAstrocytes: FIGS. 7 and 8 legends, iAstrocytes from controls and C9orf72, SOD1, sporadic ALS patients; for misfolded SOD1 positive cells: 10 μM, 24 hours
Procedure: The preparation of iAstrocytes has been described in Example 1. At Day 5, the 96 well plate was coated with fibronectin diluted 1:400 in PBS and allowed to set for cell adhesion. iAstrocytes were first washed in an appropriate volume of PBS before incubating for 5 min at 37° C. in lml of accutase. The accutase was neutralized in an appropriate volume of iAstrocyte medium and cells were collected in a 15 ml falcon and centrifuged at 200g for 4 min to form a pellet. The pellet was resuspended in an appropriate volume of medium and the cells were counted using a Burker hemocytometer. The cells were seeded at the desired density and were left for 24 hours to adhere. […]
At Day 7, iAstrocytes were fixed in 4% PFA. These were then stained with misfolded SOD1 antibody (B8H10), CD44 to identify cell area and DAPI. Columbus analysis software was used to quantify immunocytochemistry images. In each condition, the number of nuclei was established. In astrocytes stained for misfolded SOD1 protein aggregates, the number, intensity and area of misfolded SOD1 aggregates within the nucleus and surrounding perinuclear area were quantified as well as the percentage of cells positive for misfolded SOD1 accumulation.

induced MN cells = experiment: Co-culture of iAstrocytes with human induced motor neurons from the same donors: MN survival; settings: for MN survival on Day 3: 10 μM
Procedure: Induced Astrocytes from healthy controls or ALS patients were also used in a co-culture assay to determine their effect on the survival of induced MN cells from the same healthy controls or ALS patients.
The preparation of iAstrocytes and induced MN cells has been described in Example 1. […] The MN survival on Day 3 was evaluated as a percentage of survived MN cells observed on Day 1.

[1] = test system: mouse motor neuron (MN) survival; experiment: Co-culture of patient iAstrocytes with mouse Hb9-GFP motor neurons: MN survival; settings: for mouse Hb9GFP+ motor neuron rescue: percentage of motor neuron survival: FIG. 4, 10uM, 3 days after administration, compared to vehicle (DMSO), sALS, SOD1, C9orf72 iAstrocytes
Procedure: Induced astrocytes from control or ALS patients were used in a co-culture assay to determine their effect on mouse motor neuron (MN) survival. Mouse embryonic stem cell-derived motor neurons expressing green fluorescence protein (GFP) under the control of the HB9 promoter were sorted and added to iAstrocytes from patients and controls. […] The survival of mouse MNs was monitored on Day 1 and 3 with confocal image acquisition.
The MN survival on Day 3 was evaluated as a percentage of survived MN cells observed on Day 1.

[2] = iAstrocytes and induced MNs from ALS patient with C9orf72 mutation
[3] = iAstrocytes from three ALS patients with C9orf72 mutation, mouse MNs

Row | SMILES | SOD1 misfolding in human iAstrocytes (misfolded SOD1) | MN survival on Day 3 (induced MN cells; [2]) | mouse Hb9GFP+ motor neuron rescue: percentage of motor neuron survival [1] | survival of MN cells on Day 3 [1, 3] | survival of MN cells on Day 3 ([1]; iAstrocytes from three sporadic ALS (sALS) patients, mouse MNs) | percentage of misfolded SOD1 perinuclear aggregates (DMSO = 100%) (misfolded SOD1; FIG. 9, 10uM, 48 hours, iAstrocytes of sALS, SOD1, C9orf72 patients and controls, listed as (6a5)-6-methyl-5,6,6a,7-tetrahydro-4H-dibenzo[de,g]quinoline-10,11-diol) | misfolded SOD1 positive cells (misfolded SOD1; SOD1 astrocytes compared with other cell types) | misfolded SOD1 positive cells (misfolded SOD1; all cell types (control, C9orf72, SOD1, sporadic iAstrocytes)) | toxicity of astrocytes to MN cells (MN survival on Day 3) (induced MN cells; iAstrocytes and induced MNs from ALS patient with SOD1 mutation) | MN survival on Day 3 (induced MN cells; iAstrocytes and induced MNs from sALS patients) | MN survival on Day 3 (percentage of survived MN cells observed on Day 1) ([1]; iAstrocytes from ALS patients with C9orf72 mutation, mouse MNs, untreated no more than 33%) | survival of MN cells on Day 3 ([1]; iAstrocytes from ALS patients with SOD1 mutation, mouse MNs)
1 | C=C1CC[C@@H]2[C@](C)(CO)[C@H](O)CC[C@@]2(C)[C@@H]1C/C=C1/C(=O)OC[C@H]1O [andrographolide, reference compound] | Reduced SOD1 misfolding | the most significant outcome | increase in percentage of motor neuron survival | significantly improved | most significantly improved | – | – | – | – | – | – | –
2 | CN1CCc2cccc3c2[C@@H]1Cc1ccc(O)c(O)c1-3 [(6aS)-6-methyl-5,6,6a,7-tetrahydro-4H-dibenzo[de,g]quinoline-10,11-diol] | Reduced SOD1 misfolding | the most significant outcome | increase in percentage of motor neuron survival | significantly improved | – | reduction of misfolded SOD1 in all patient lines treated; also recorded: significant reduction in misfolded SOD1 in 6 different patient lines | greatest decrease in SOD1 astrocytes | reduction of misfolded SOD1 positive cells across all cell types | most effectively dampened the toxicity of SOD1-derived astrocytes | beneficial at reducing toxicity caused by iAstrocytes from some sporadic patients over others | up to 38% | most significant improvement
3 | Nc1nc2ccc(OC(F)(F)F)cc2s1 [riluzole, reference compound] | Reduced SOD1 misfolding | – | – | – | – | – | – | – | – | – | – | –
